Measurements: BigSolDB 2.1

CC[C@H](C)[C@H](N)C(=O)O
solubility (mole fraction)
Details	283.15 K	288.15 K	293.15 K	298.15 K	303.15 K	308.15 K	313.15 K	318.15 K	323.15 K	328.15 K
in 1,4-dioxane	–	0.00118	0.00132	0.00146	0.00172	0.00195	0.00226	0.00258	0.00303	0.00339
in 2-butanone	0.000223	0.000324	0.000415	0.000538	0.000646	0.000819	0.000978	0.00118	0.00145	–
in acetone	1.21e-05	1.47e-05	1.82e-05	2.04e-05	3.19e-05	4.37e-05	6.14e-05	8.28e-05	0.000132	–
in acetonitrile	0.000153	0.000185	0.000276	0.000303	0.000374	0.000451	0.000525	0.000582	0.0007	–
in ethanol	0.000199	0.000227	0.000285	0.000363	0.000532	0.000716	0.000881	0.00101	0.00118	–
in ethyl acetate	0.000398	0.000441	0.000482	0.000544	0.000609	0.000656	0.000722	0.000803	0.000891	–
in isobutanol	0.00106	0.00125	0.0015	0.00186	0.00216	0.00246	0.00298	0.00346	0.00394	–
in isopropanol	0.00147	0.00173	0.00207	0.00241	0.00285	0.0034	0.00394	0.00454	0.00494	–
in methanol	0.000793	0.000814	0.000848	0.000891	0.000935	0.000984	0.00105	0.00114	0.00125	–
in methyl acetate	0.00174	0.00194	0.00223	0.00263	0.00292	0.00332	0.00387	0.00472	0.00545	–
in n-butanol	9.12e-05	0.000142	0.000221	0.000282	0.000372	0.000468	0.000585	0.00068	0.000838	–
in n-propanol	0.000187	0.000226	0.000268	0.000349	0.000515	0.00069	0.000817	0.0009	0.00101	–
